PubChem BioAssay (NCI)
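Where inhibition never reached the appropriate level, the endpoint shown equals the highest concentration tested. Otherwise, values were interpolated linearly from a five-concentration, 48-hour dose response in 96-well plates. Here, GI50 denotes the concentration required for 50% inhibition of growth. TGI marks complete inhibition of growth.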

How the values were obtained:
Test in all cases: NCI-60 cell line screen, 48 h
[1] = system: MDA-MB-231 breast
[2] = system: HCC-2998 colon
[3] = system: SW-620 colon
[4] = system: CCRF-CEM leukemia
[5] = system: NCI-H522 lung
[6] = system: IGROV1 ovarian
[7] = system: EKVX NSCLC
[8] = system: RPMI-8226 leukemia
[9] = system: MOLT-4 leukemia
[10] = system: UO-31 renal
[11] = system: T-47D breast
[12] = system: NCI-H226 lung
[13] = system: NCI-H23 lung
[14] = system: SK-OV-3 ovarian
[15] = system: BT-549 breast
[16] = system: SNB-19 CNS
[17] = system: A498 renal
[18] = system: ACHN renal
[19] = system: HCT-15 colon
[20] = system: HCT-116 colon
[21] = system: U251 CNS
[22] = system: SK-MEL-5 melanoma
[23] = system: SF-295 CNS
[24] = system: OVCAR-5 ovarian
[25] = system: MALME-3M melanoma
[26] = system: A549 NSCLC
[27] = system: SR leukemia
[28] = system: SK-MEL-28 melanoma
[29] = system: TK-10 renal
[30] = system: MDA-MB-435
[31] = system: HS 578T breast
[32] = system: SK-MEL-2 melanoma
[33] = system: OVCAR-4 ovarian
[34] = system: RXF 393 renal
[35] = system: K-562 leukemia
[36] = system: LOX IMVI melanoma
[37] = system: MCF7 breast
[38] = system: NCI/ADR-RES ovarian
[39] = system: OVCAR-8 ovarian
[40] = system: HOP-62 NSCLC
[41] = system: KM12 colon
[42] = system: HOP-92 NSCLC
[43] = system: OVCAR-3 ovarian
[44] = system: M14 melanoma
[45] = system: NCI-H460 lung
[46] = system: HT29 colon
[47] = system: SNB-75 CNS
[48] = system: HL-60(TB) leukemia
[49] = system: PC-3 prostate
[50] = system: COLO 205 colon
[51] = system: SF-539 CNS
[52] = system: SF-268 CNS
[53] = system: SN12C renal
[54] = system: UACC-257 melanoma
[55] = system: DU-145 prostate
[56] = system: UACC-62 melanoma
[57] = system: 786-0 renal

## Cc1cc(N2CCCCC2)nc(N(CCCNc2ccnc3cc(Cl)ccc23)Cc2ccco2)n1
[1]
  GI50: 1.73 µM
  TGI: 4.24 µM
[2]
  GI50: 1.97 µM
  TGI: 4.39 µM
[3]
  GI50: 1.61 µM
  TGI: 4.37 µM
[4]
  GI50: 2.01 µM
  TGI: 12.6 µM
[5]
  GI50: 2.63 µM
  TGI: 7.69 µM
[6]
  GI50: 1.82 µM
  TGI: 6.57 µM
[7]
  GI50: 2.42 µM
  TGI: 11.7 µM
[8]
  GI50: 1.83 µM
  TGI: 4.46 µM
[9]
  GI50: 2.45 µM
  TGI: 7.18 µM
[10]
  GI50: 1.17 µM
  TGI: 2.59 µM
[11]
  GI50: 1.77 µM
  TGI: 4.44 µM
[12]
  GI50: 2.9 µM
  TGI: 11.8 µM
[13]
  GI50: 1.58 µM
  TGI: 3.8 µM
[14]
  GI50: 3.35 µM
  TGI: 13.2 µM
[15]
  GI50: 2.65 µM
  TGI: 8.54 µM
[16]
  GI50: 2.93 µM
  TGI: 13.5 µM
[17]
  GI50: 2.66 µM
  TGI: 9.39 µM
[18]
  GI50: 3.3 µM
  TGI: 12 µM
[19]
  GI50: 1.62 µM
  TGI: 4.88 µM
[20]
  GI50: 1.15 µM
  TGI: 3.28 µM
[21]
  GI50: 1.8 µM
  TGI: 3.76 µM
[22]
  GI50: 1.67 µM
  TGI: 3.06 µM
[23]
  GI50: 1.29 µM
  TGI: 3.59 µM
[24]
  GI50: 3 µM
  TGI: 15 µM
[25]
  GI50: 2.03 µM
  TGI: 3.68 µM
[26]
  GI50: 3.34 µM
  TGI: 11.2 µM
[27]
  GI50: 1.69 µM
  TGI: 4.71 µM
[28]
  GI50: 1.62 µM
  TGI: 3.28 µM
[29]
  GI50: 2.63 µM
  TGI: 8.12 µM
[30]
  GI50: 1.65 µM
  TGI: 3.68 µM
[31]
  GI50: 3.02 µM
  TGI: 11.4 µM
[32]
  GI50: 2.4 µM
  TGI: 6.25 µM
[33]
  GI50: 2.69 µM
  TGI: 14.3 µM
[34]
  GI50: 1.52 µM
  TGI: 3.44 µM
[35]
  GI50: 1.38 µM
  TGI: 5.37 µM
[36]
  GI50: 1.24 µM
  TGI: 2.65 µM
[37]
  GI50: 1.81 µM
  TGI: 5.13 µM
[38]
  GI50: 1.43 µM
  TGI: 3.87 µM
[39]
  GI50: 2.24 µM
  TGI: 5.18 µM
[40]
  GI50: 1.38 µM
  TGI: 4.1 µM
[41]
  GI50: 2.82 µM
  TGI: 11.1 µM
[42]
  GI50: 1.38 µM
  TGI: 3.95 µM
[43]
  GI50: 2.02 µM
  TGI: 5.01 µM
[44]
  GI50: 1.64 µM
  TGI: 3.4 µM
[45]
  GI50: 1.8 µM
  TGI: 4.23 µM
[46]
  GI50: 1.2 µM
  TGI: 4.95 µM
[47]
  GI50: 3.36 µM
  TGI: 16.8 µM
[48]
  GI50: 1.94 µM
  TGI: 4.51 µM
[49]
  GI50: 1.98 µM
  TGI: 5.61 µM
[50]
  GI50: 1.67 µM
  TGI: 3.53 µM
[51]
  GI50: 1.61 µM
  TGI: 3.19 µM
[52]
  GI50: 2.86 µM
  TGI: 11.9 µM
[53]
  GI50: 2.14 µM
  TGI: 7.15 µM
[54]
  GI50: 2.35 µM
  TGI: 5.21 µM
[55]
  GI50: 3.14 µM
  TGI: 12.9 µM
[56]
  GI50: 1.89 µM
  TGI: 3.73 µM
[57]
  GI50: 1.61 µM
  TGI: 3.27 µM
